{
  "source": "patent US9314031B2",
  "about": "“Plant growth regulation” (SYNGENTA PARTICIPATIONS AG, priority 2012, dated 2016)",
  "key": {"[1]": {"tested_on": "soybeans (Toliman, S40-F8)", "assay": "Glasshouse trial, shoot length of soybeans after leaf spray", "format": "in vivo, soybean", "conditions": "for Shoot length 11 days after spray application: spray at growth stage 12", "source_text": "A glasshouse trial was setup to compare growth regulation effects of trinexapac-ethyl, seaweed extract, and mixtures of trinexapac-ethyl and seaweed extract at various rates, on two varieties of soybeans (Toliman, S40-F8).\nEach treatment was applied as a spray to the leaves of the plant at plant growth stage 12 (trifoliolate leaf on the 2nd node unfolded)."}, "[2]": {"tested_on": "soybeans (Toliman, S40-F8)", "assay": "Glasshouse trial, Nitrogen Balance Index (Dualex) of soybeans after leaf spray", "format": "in vivo, soybean", "conditions": "for Nitrogen Balance Index 8 days after spray application: spray at growth stage 12", "source_text": "A glasshouse trial was setup to compare crop enhancement effects of trinexapac-ethyl, seaweed extract, and mixtures of trinexapac-ethyl and seaweed extract at various rates, on two varieties of soybeans (Toliman, S40-F8)\nEach treatment was applied as a spray to the leaves of the plant at plant growth stage 12 (trifoliolate leaf on the 2nd node unfolded). Assessments of the Nitrogen Balance Index (NBI) were made 8 days after spray application using a Dualex (Force-A, Orsay Cedex) device; NBI is a measure used to estimate the nitrogen and protein status of a plant."}, "summer barley (Pasadena)": {"tested_on": "summer barley (Pasadena)", "assay": "Glasshouse trial, lodging of summer barley after leaf spray", "format": "in vivo", "conditions": "for % lodging 30 days after spray application: Summer-barley Pasadena, spray at growth stage 30", "source_text": "(§1) A glasshouse trial was setup to compare growth regulation effects of trinexapac-ethyl, seaweed extract, and mixtures of trinexapac-ethyl and seaweed extract at various rates, on both summer barley (Pasadena) and winter rye (Reknit).\n(§2) Each treatment was applied as a spray to the leaves of the plant at plant growth stage 30 (start of stem elongation)."}, "Winter-rye Rekrut": {"tested_on": "Winter-rye Rekrut", "assay": "Glasshouse trial, lodging of winter rye after leaf spray", "format": "in vivo", "conditions": "for % lodging 30 days after spray application: Winter-rye Rekrut, spray at growth stage 30", "source_text": "as §1, §2"}, "[3]": {"conditions": "Soybean var. S40-F8, treatment 1: Moddus 200 g AI/ha"}, "[4]": {"conditions": "Soybean var. S40-F8, treatment 2: Moddus 100 g AI/ha"}, "[5]": {"conditions": "Soybean var. S40-F8, treatment 3: Moddus 50 g AI/ha"}, "[6]": {"conditions": "Soybean var. Toliman, treatment 1: Moddus 200 g AI/ha"}, "[7]": {"conditions": "Soybean var. Toliman, treatment 2: Moddus 100 g AI/ha"}, "[8]": {"conditions": "Soybean var. Toliman, treatment 3: Moddus 50 g AI/ha"}, "[9]": {"conditions": "treatment 1: Moddus 100 g AI/ha"}, "[10]": {"conditions": "treatment 2: Moddus 200 g AI/ha"}},
  "data": [
    {"smiles": "CCOC(=O)C1CC(=O)C(=C(O)C2CC2)C(=O)C1", "note": "(centres unmarked) [TXP, trinexapac-ethyl]", "values": [
      {"measurement": "Shoot length 11 days after spray application", "setting": "[1]; [3]", "result": 34.5, "unit": "cm"},
      {"measurement": "Shoot length 11 days after spray application", "setting": "[1]; [4]", "result": 39.5, "unit": "cm"},
      {"measurement": "Shoot length 11 days after spray application", "setting": "[1]; [5]", "result": 45.8, "unit": "cm"},
      {"measurement": "Shoot length 11 days after spray application", "setting": "[1]; [6]", "result": 54.8, "unit": "cm"},
      {"measurement": "Shoot length 11 days after spray application", "setting": "[1]; [7]", "result": 59.3, "unit": "cm"},
      {"measurement": "Shoot length 11 days after spray application", "setting": "[1]; [8]", "result": 61.3, "unit": "cm"},
      {"measurement": "Effect on plant length, in words", "setting": "[1]; both soybean varieties, summary of Table 5, all rates, compared to untreated control or TXP alone", "result": "reduces plant length compared to the control"},
      {"measurement": "Nitrogen Balance Index 8 days after spray application", "setting": "[2]; [3]", "result": 125.5},
      {"measurement": "Nitrogen Balance Index 8 days after spray application", "setting": "[2]; [4]", "result": 97.9},
      {"measurement": "Nitrogen Balance Index 8 days after spray application", "setting": "[2]; [5]", "result": 77.1},
      {"measurement": "Nitrogen Balance Index 8 days after spray application", "setting": "[2]; [6]", "result": 64.2},
      {"measurement": "Nitrogen Balance Index 8 days after spray application", "setting": "[2]; [7]", "result": 48.7},
      {"measurement": "Nitrogen Balance Index 8 days after spray application", "setting": "[2]; [8]", "result": 47.9},
      {"measurement": "Effect on NBI, in words", "setting": "[2]; both soybean varieties, summary of Table 7, compared to untreated control or single components", "result": "increases NBI at high rate"},
      {"measurement": "% lodging 30 days after spray application", "setting": "summer barley (Pasadena); [9]", "result": 10.0, "unit": "%"},
      {"measurement": "% lodging 30 days after spray application", "setting": "summer barley (Pasadena); [10]", "result": 6.7, "unit": "%"},
      {"measurement": "Effect on lodging, in words", "setting": "summer barley (Pasadena); summer barley, summary of Table 3, all rates, compared to untreated control or TXP alone", "result": "reduces lodging compared to the control"},
      {"measurement": "% lodging 30 days after spray application", "setting": "Winter-rye Rekrut; [9]", "result": 6.7, "unit": "%"},
      {"measurement": "% lodging 30 days after spray application", "setting": "Winter-rye Rekrut; [10]", "result": 0.0, "unit": "%"},
      {"measurement": "Effect on lodging, in words", "setting": "Winter-rye Rekrut; winter rye, summary of Table 3, all rates, compared to untreated control or TXP alone", "result": "reduces lodging compared to the control"}
    ]}
  ]
}
